Results reported in ChEMBL document CHEMBL1152816 (J Med Chem, 2009).

How the values were obtained:
[1] = Inhibition of potato 5LOX by enzyme immunoassay; parameters: species or system Solanum tuberosum
[2] = tested on: Rattus norvegicus; test: Antiinflammatory activity against carrageenan-induced foot paw edema in po dosed rat after 3 hrs; format: functional
[3] = tested on: Rattus norvegicus; test: Antiinflammatory activity against carrageenan-induced foot paw edema in rat at 150 mg/kg, po after 3 hrs; format: functional
[4] = target: T1, Prostaglandin G/H synthase 1 (Bos taurus, UniProt O62664)
T1 sequence (O62664 whole entry): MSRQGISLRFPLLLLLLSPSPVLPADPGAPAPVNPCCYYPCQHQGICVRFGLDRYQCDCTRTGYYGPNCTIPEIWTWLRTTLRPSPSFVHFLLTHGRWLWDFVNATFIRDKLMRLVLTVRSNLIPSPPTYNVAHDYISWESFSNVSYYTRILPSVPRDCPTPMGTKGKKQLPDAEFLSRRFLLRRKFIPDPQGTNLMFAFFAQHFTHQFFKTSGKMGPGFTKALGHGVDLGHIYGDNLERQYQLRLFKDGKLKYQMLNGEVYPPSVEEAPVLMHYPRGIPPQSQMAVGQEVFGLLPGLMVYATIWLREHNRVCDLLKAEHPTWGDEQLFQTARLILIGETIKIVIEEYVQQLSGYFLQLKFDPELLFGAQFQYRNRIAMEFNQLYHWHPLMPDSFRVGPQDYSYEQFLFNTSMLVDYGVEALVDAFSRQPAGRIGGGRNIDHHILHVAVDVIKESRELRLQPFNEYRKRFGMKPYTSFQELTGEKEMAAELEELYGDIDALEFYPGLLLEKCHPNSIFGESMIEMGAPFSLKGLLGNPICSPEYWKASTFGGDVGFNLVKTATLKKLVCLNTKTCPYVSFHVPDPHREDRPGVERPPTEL
Description: Inhibition of bovine COX1 by enzyme immunoassay

[5] = target: T2, Prostaglandin G/H synthase 2 (Homo sapiens, UniProt P35354); test: Inhibition of human recombinant COX2 by enzyme immunoassay
T2 sequence (P35354 whole entry): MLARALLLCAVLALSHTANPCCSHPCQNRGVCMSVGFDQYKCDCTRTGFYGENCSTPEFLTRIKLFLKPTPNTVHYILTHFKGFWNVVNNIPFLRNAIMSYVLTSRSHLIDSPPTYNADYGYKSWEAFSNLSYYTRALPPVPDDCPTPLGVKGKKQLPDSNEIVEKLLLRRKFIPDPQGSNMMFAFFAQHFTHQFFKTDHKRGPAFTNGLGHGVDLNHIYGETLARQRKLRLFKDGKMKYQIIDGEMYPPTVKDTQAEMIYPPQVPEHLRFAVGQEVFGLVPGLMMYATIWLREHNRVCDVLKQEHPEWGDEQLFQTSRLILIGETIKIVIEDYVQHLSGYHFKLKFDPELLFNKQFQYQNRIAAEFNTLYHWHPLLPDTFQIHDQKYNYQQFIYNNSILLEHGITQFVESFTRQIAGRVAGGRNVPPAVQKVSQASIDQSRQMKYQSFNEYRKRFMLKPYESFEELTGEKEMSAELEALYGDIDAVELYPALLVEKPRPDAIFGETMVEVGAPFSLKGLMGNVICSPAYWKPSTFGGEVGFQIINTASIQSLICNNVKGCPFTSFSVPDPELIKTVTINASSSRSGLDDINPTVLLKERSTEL

| SMILES | IC50 [1] | IC50 [4] | IC50 [5] | ED50 [2] | Activity [3] |
| --- | --- | --- | --- | --- | --- |
| NS(=O)(=O)c1ccc(-n2nc(C(F)(F)F)cc2-c2ccn(C(F)F)c(=O)c2)cc1 | 5 µM | 13.1 µM | 0.69 µM | 27.7 mg/kg |  |
| CC(C)Cc1ccc(C(C)C(=O)O)cc1 (centres undefined) [IBUPROFEN] |  |  |  | 67.4 mg/kg |  |
| CS(=O)(=O)c1ccc(-n2nc(C(F)(F)F)cc2-c2ccn(C(F)F)c(=O)c2)cc1 | 4.4 µM | 7.8 µM | 1.82 µM | 42.9 mg/kg |  |

The remaining compounds from weak to strong by IC50 [1], led by results:

| IC50 [1] | IC50 [4] | IC50 [5] | SMILES | ED50 [2] | Activity [3] |
| --- | --- | --- | --- | --- | --- |
| 4 µM |  |  | O=C(O)/C=C/c1ccc(O)c(O)c1 [CAFFEIC ACID] |  |  |
| 0.47 µM | 258 µM |  | CS(=O)(=O)c1ccc(-n2nc(C(F)(F)F)cc2-c2ccnc(Cl)c2)cc1 | > 150 mg/kg | 43.1% |
| 0.39 µM | 8.3 µM | 0.73 µM | NS(=O)(=O)c1ccc(-n2nc(C(F)(F)F)cc2-c2ccnc(Cl)c2)cc1 | > 150 mg/kg | 33.3% |
